From patent USRE32534E, “Peptides, process for preparing the same and psychodepressant compositions containing the same” (Amano Pharmaceutical Co., Ltd., priority 1982, dated 1987)
Where a SMILES comes first, the peptide text is derived from it.

Columns and labels:
Assay type in all cases: in vivo
[1] = tested on: Male ddy mice; assay: Effect on hyperlocomotion induced by thyrotropin releasing hormone (TRH); settings: s.c.
Experimental: Effect on hyperlocomotion induced by thyrotropin releasing hormone (TRH)
Male ddy mice (weighing 18 to 24.5 g) were used. The mice were placed into a transparent acrylic resin cage (26×37×11 cm) installed on Animex meter. Before experiment, the mice were allowed to habituate for 2 hours in the cage to fully lower the activity of the mice. After the completion of habituation, peptide A, peptide B or a diluent (physiological saline containing 1 mg/ml of sodium hydrogencarbonate) serving as a control was subcutaneously given to the mice. Thirty minutes thereafter, 5 mg/kg of TRH was intraperitoneally given to the animals. The activity counts during the period of 60 minutes following the administration of TRH was measured. Student's t-test was resorted to for statistical treatment.

[2] = tested on: male Wister rats; assay: Effect on metabolism of amine in the brain; settings: 1 mg/kg s.c., 1 hour after dosing
Experimental: Effect on metabolism of amine in the brain
Unfasted male Wister rats (weighing 180 to 220 g) were used. Peptide A or peptide B was subcutaneously given to the animal at a dose of 1 mg/kg, the head was irradiated with microwave 1 hour thereafter, and amine metabolite was extracted from the brain. First, removed tissues were homogenized with 1M formic acid and centrifuged at 20,000×g for 20 minutes, and the supernatant (1 ml) was shaken with 5 ml of ethyl acetate. The 3,4-dihydroxyphenylacetic acid (DOPAC), homovanillic acid (HVA) and 5-hydroxyindoleacetic acid (5-HIAA) in the ethyl acetate layer were analyzed by high-performance liquid chromatography under the following conditions. Chemcosorb, 5-ODS, 20 cm×4.6 mm I.D. was used for a separating column, and a mobile phase (0.1M KH2 PO4 (pH 5.0)-5 mM EDTA-2Na-5% acetonitrile) was passed through the column at a flow rate of 1 ml/min. The electrochemical detector was set to an oxidation potential of +0.8 V.

[3] = tested on: male Wister rats; assay: Effect on the fixed ratio responding in rats (FR20); settings: s.c., 15 min before a 20 min session, dose giving count 50 with control as 100
Experimental: Effect on the fixed ratio responding in rats
The test was conducted according to the method described in Ahlenius S. and Engel J., Eur. J. Pharm., Vol. 15, 187-192 (1971).
Male Wister rats (weighing 240 to 320 g) were placed into Skinner box (product of Bil-Medika Co., Ltd., Japan, adapted to give a feed when a lever within the box is pressed) and made to learn how to take the food. In this test, one feed was given to the rats when the lever was pressed 20 times, i.e., fixed ratio (FR) 20. The rats showing stable FR20 response were divided into groups each including four rats.
Physiological saline (containing 1 mM of sodium hydrogencarbonate) containing a specified amount of a test compound was subcutaneously given to the rats of one group in a volume of 0.1 ml/100 g. (Physiological saline containing the above-mentioned amount of sodium hydrogencarbonate only was given to the control group). Fifteen minutes after the administration, the test animals were placed in the Skinner box, and the number of times the animals took the feed for 20 minutes was counted. The dose at which the count gained by the group of animals was 50, namely, ED50 value, was determined, with the count gained by the control group calculated as 100. The same procedure as above was repeated with use of the other test compounds.

[4] = tested on: Male ddy mice; assay: Effect on climbing behavior induced by apomorphine (Pharmacological Test 7); settings: control 9.8 ± 0.7
Experimental: Effect on climbing behavior induced by apomorphine
Male ddy mice (weighing 20 to 30 g) were used, with 10 mice in each group. Each mouse was placed into a cylindrical cage, 12 cm in diameter and 14 cm in height, made up of vertical rods of 2 mm in diameter spaced apart at a distance of 10 mm in a circular arrangement. The mouse was allowed to stand therein for 2 hours. Physiological saline containing a specified amount of a test compound (and 1 mM of sodium hydrogencarbonate) was subcutaneously given to one group of mice in a volume of 1 ml/10 g. (The same dose of saline only was given to a control group). […] The test was carried out in soundproof compartments.
0: All the four legs are on the floor.
2: At least three legs are on rods.
The other compounds were tested in the same manner as above. The test was carried out in soundproof compartments. Student's t-test was resorted to for satistical treatment.

[5] = tested on: Male ICR mice; assay: Inhibitory effect on hyperlocomotion induced by administration of methylphenidate; settings: s.c. with methylphenidate 10 mg/kg s.c., 1 hour after administration, 50 with control as 100
Experimental: Inhibitory effect on hyperlocomotion induced by administration of methylphenidate
Male ICR mice (weighing 24 to 30 g) were divided into groups, each including 10 mice. To one group of mice were subcutaneously given 10 mg/kg of methylphenidate and 0.1 ml/10 g of a saline solution of a specified amount of a test compound and 1 mM of sodium hydrogencarbonate. One hour after the administration, the test animals were checked for hyperlocomotion, which was measured with use of a device for measuring locomotion of small animals (wherein the motion of an animal shifts the center of graavity of the device to actuate a microswitch for the measurement of the amount of motion, see Folia Pharmacologica Japonica, 74, 629-639 (1978). For a control group, the same procedure as above was repeated except that the saline solution given was free from any test compound. The concentration of the test compound at which the result achieved by the group of animals was 50, namely, ED50 value, was determined, with the measurement obtained by the control group calculated as 100. The other compounds were tested in the same manner as above.

[6] = tested on: male Wister rats; assay: Effect on yawning behavior induced by apomorphine; settings: s.c.
Experimental: Effect on yawning behavior
Male Wister rats (weighing 200 to 300 g) were used, with 10 rats in each group. The rat was placed into a plastics cage (17×24×12 cm) with a floor mat and was then habituated for 30 minutes. Peptide A, peptide B, CCK-8 or the above-mentioned diluent serving as a control was subcutaneously given to the animal. Thirty minutes thereafter, 0.03 mg/kg of apomorphine was subcutaneously given to the animal. The number of yawns induced by apomorphine was counted during a period of 30 minutes following administration of apomorphine. The test was conducted in a soundproof compartment for each animal. Wilcoxon rank-sum test was resorted to for statistical treatment.

[7] = Induction of yawning behavior by the peptide itself; settings: yawning thought to be induced by a reduction in the amount of dopamine
[8] = tested on: test animals; assay: Induction of catalepsy in test animals

Compound | Effect on TRH-induced hyperlocomotion (in words) [1] | Increase of DOPAC content in hypothalamus [2] | Influence on content of metabolite (DOPAC, HVA, 5-HIAA) in frontal cortex, limbic forebrain, and striatum [2] | ED50, inhibition of FR20 responding [3] [mg/kg] | other results
CSCC[C@H](NC(=O)[C@H](Cc1ccc(OS(=O)(=O)O)cc1)NC(=O)[C@H](CC(=O)O)NC(=O)CCCC(=O)O)C(=O)NCC(=O)N[C@@H](Cc1c[nH]c2ccccc12)C(=O)N[C@@H](CCSC)C(=O)N[C@@H](CC(=O)O)C(=O)N[C@@H](Cc1ccccc1)C(N)=O [Peptide A, Glt--Asp--Tyr(SO3 H)--Met--Gly--Trp--Met--Asp--Phe--NH2] | inhibit the hyperlocomotion induced by TRH | about 60% | Neither of peptide A and peptide B was found to influence |  | 
CSCC[C@H](NC(=O)[C@H](Cc1ccc(OS(=O)(=O)O)cc1)NC(=O)CCCC(=O)O)C(=O)NCC(=O)N[C@@H](Cc1c[nH]c2ccccc12)C(=O)N[C@@H](CCSC)C(=O)N[C@@H](CC(=O)O)C(=O)N[C@@H](Cc1ccccc1)C(N)=O [Peptide E, Glt--Tyr(SO3 H)--Met--Gly--Trp--Met--Asp--Phe--NH2] (HELM PEPTIDE1{[O=C(O)CCCC(=O)[*:2]].[O=C([C@H](Cc1ccc(OS(=O)(=O)O)cc1)N[*:1])[*:2]].M.G.W.M.D.F.[am]}$$$$V2.0) |  |  |  | 0.004 | 
CSCC[C@H](NC(=O)[C@H](Cc1ccc(OS(=O)(=O)O)cc1)NC(=O)[C@H](CC(=O)O)NC(=O)[C@@H]1CCC(=O)N1)C(=O)NCC(=O)N[C@@H](Cc1c[nH]c2ccccc12)C(=O)N[C@@H](CCSC)C(=O)N[C@@H](CC(=O)O)C(=O)N[C@@H](Cc1ccccc1)C(N)=O [Peptide B, pGlu--Asp--Tyr(SO3 H)--Met--Gly--Trp--Met--Asp--Phe--NH2] | inhibit the hyperlocomotion induced by TRH | about 60% | Neither of peptide A and peptide B was found to influence |  | 
Pht--Tyr(SO3 H)--Met--Gly--Trp--Met--Asp--Phe--NH2 [Peptide F] |  |  |  | 0.0167 | Average: Mean ± S.E. (total of 7 scores), climbing behavior ([4]; 0.1 mg/kg s.c.): 7.7 ± 0.6; Average: Mean ± S.E. (total of 7 scores), climbing behavior ([4]; 0.3 mg/kg s.c.): 8.0 ± 0.8; Average: Mean ± S.E. (total of 7 scores), climbing behavior ([4]; 1.0 mg/kg s.c.): 6.8 ± 0.8; ED50, inhibition of methylphenidate-induced hyperlocomotion [5]: 0.2513 mg/kg
CSCC[C@H](NC(=O)[C@H](Cc1ccc(OS(=O)(=O)O)cc1)NC(=O)[C@@H](N)CC(=O)O)C(=O)NCC(=O)N[C@@H](Cc1c[nH]c2ccccc12)C(=O)N[C@@H](CCSC)C(=O)N[C@@H](CC(=O)O)C(=O)N[C@@H](Cc1ccccc1)C(N)=O [CCK-8, Asp--Tyr(SO3 H)--Met--Gly--Trp--Met--Asp--Phe--NH2] |  |  |  |  | Effect on yawning behavior induced by apomorphine (in words) [6]: is not inhibited by CCK-8; Induction of yawning behavior (in words) [7]: induces no yawning behavior whatsoever; Induction of catalepsy (side effect, in words) [8]: induces catalepsy
